Source: patent EP4778922A1, “BICYCLIC COMPOUND, AND PREPARATION METHOD THEREFOR AND PHARMACEUTICAL USE THEREOF” (Shanghai Jeyou Pharmaceutical Co., Ltd., priority 2023, dated 2025)
Read-outs that look alike come from different tables or passages of the source.

How the values were obtained:
[1] = tested on: 22RV1 cells; test: Cell proliferation inhibition assay in 22RV1 cells (CellTiter-Glo, 7 days); assay type: cell-based, human; details: Homo sapiens, 22Rv1, 168 h
How it was run: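 LNCaP and 22RV1 human prostate cancer cells, 3000 per well, exposed to graded compound for 7 days at 37°C, 5% CO2; LNCaP got 0.2 nM DHT 1 h after compound. Viability by CellTiter-Glo luminescence; IC50 from four-parameter variable-slope fit.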

[2] = biological target: T1, CYP3A4 (testosterone/midazolam) (Homo sapiens, UniProt P08684); test: CYP inhibition assay in human liver microsomes; assay type: in vitro ADME
T1 construct: co-incubated with human liver microsomes; from tissue; host or cells: human liver microsomes
Description: (§1) Test Example 3: CYP Inhibition Assay
(§2) An in vitro assay system was used to evaluate the effects of the compounds on the activities of several human liver microsomal cytochrome P450 (CYP) isozymes (CYP1A2, CYP2C9, CYP2D6, CYP3A4 (testosterone/midazolam), CYP2C19, and CYP2C8). Specific probe substrates for CYP450 isozymes were co-incubated with human liver microsomes and the compound at various concentrations (0, 0.0300, 0.100, 0.300, 1.00, 3.00, 10.0 µM). The reaction was initiated by adding the coenzyme NADPH. After the reaction was completed, the samples were processed, and the metabolites generated from the probe substrates were detected by liquid chromatography-tandem mass spectrometry (LC-MS/MS). Based on the resulting dose-response curves, the IC50 values of the test compounds for the probe substrate reactions catalyzed by each CYP isozyme were calculated.

[3] = biological target: T2, CYP2C19 (Homo sapiens, UniProt P33261); test: CYP inhibition assay in human liver microsomes; assay type: in vitro ADME; details: human liver microsomes, NADPH; read-out: CYPs 2C19 (IC50)
T2 construct: co-incubated with human liver microsomes; from tissue; host or cells: human liver microsomes
Description: as §1, §2

[4] = biological target: T3, CYP2C9 (Homo sapiens, UniProt P11712); test: CYP inhibition assay in human liver microsomes; assay type: in vitro ADME; details: human liver microsomes, NADPH; read-out: CYPs 2C9 (IC50)
T3 construct: co-incubated with human liver microsomes; from tissue; host or cells: human liver microsomes
Description: as §1, §2

[5] = biological target: T4, CYP2C8 (Homo sapiens, UniProt P10632); test: CYP inhibition assay in human liver microsomes; assay type: in vitro ADME; details: human liver microsomes, NADPH; read-out: CYPs 2C8 (IC50)
T4 construct: co-incubated with human liver microsomes; from tissue; host or cells: human liver microsomes
T4 sequence (P10632 1-490): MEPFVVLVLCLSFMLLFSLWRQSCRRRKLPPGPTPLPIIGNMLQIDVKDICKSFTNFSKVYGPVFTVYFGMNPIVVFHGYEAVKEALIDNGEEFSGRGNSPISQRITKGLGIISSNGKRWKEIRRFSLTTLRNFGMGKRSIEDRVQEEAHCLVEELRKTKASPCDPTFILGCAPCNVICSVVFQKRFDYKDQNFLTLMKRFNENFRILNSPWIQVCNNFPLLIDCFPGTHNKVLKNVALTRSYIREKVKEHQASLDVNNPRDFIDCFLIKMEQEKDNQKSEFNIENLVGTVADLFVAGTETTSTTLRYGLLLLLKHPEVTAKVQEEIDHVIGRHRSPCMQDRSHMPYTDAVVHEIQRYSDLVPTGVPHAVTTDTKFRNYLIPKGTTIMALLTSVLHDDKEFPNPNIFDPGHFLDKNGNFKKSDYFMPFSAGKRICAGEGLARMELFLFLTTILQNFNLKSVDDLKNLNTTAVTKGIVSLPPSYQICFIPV
Description: as §1, §2

[6] = tested on: LNCaP cells; test: Cell proliferation inhibition assay in LNCaP cells (0.2 nM DHT, CellTiter-Glo, 7 days); assay type: cell-based, human; details: Homo sapiens, LNCaP, 168 h
Description: • 1. The human prostate cancer cell lines 22RV1 and LNCaP were purchased from ATCC. […] The cell concentration was adjusted to an appropriate concentration (determined based on the results of cell density optimization experiments), and the cells were seeded into a 96-well plate. A 100 µL cell suspension was added, resulting in 3000 cells per well. […] On the second day, for 22Rv1 cells, test compounds at different concentrations were added, and the cells were incubated at 37°C in a 5% CO2 incubator for 7 days; for LNCaP cells, test compounds at different concentrations were added first, and after 1 hour of treatment, 0.2 nM DHT was added. The cells were then incubated at 37°C in a 5% CO2 incubator for 7 days. • 4. After the incubation period, a volume of CellTiter-Glo detection reagent equal to the volume of the culture medium was added to each well. The plate was shaken and mixed thoroughly for 5 minutes, then incubated at room temperature for 10 minutes. Readings were taken using a PerkinElmer EnVision microplate reader. • 5.
The IC50 curve was fitted and the IC50 value was calculated using the software GraphPad Prism 8 with the calculation formula XY-analysis/Nonlinear regression (curve fit)/Dose response-Inhibition/log (inhibitor) vs. response-Variable slope (four parameters).

[7] = Mouse pharmacokinetic test; assay type: in vivo, ICR mice; details: plasma; for Tmax: read-out: Tmax
How it was run: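 Male naive ICR mice (25–30 g, n=3 per route) received a single intravenous or oral dose, with feeding resumed 4 h post-dose. Blood was centrifuged at 4°C, and plasma was stored at -80°C until analysis.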

[8] = probe substrate midazolam, read-out: CYPs 3A4 (Midazolam) (IC50)
[9] = probe substrate testosterone, read-out: CYPs 3A4 (Testosterone) (IC50)

T3 sequence (P11712 whole entry): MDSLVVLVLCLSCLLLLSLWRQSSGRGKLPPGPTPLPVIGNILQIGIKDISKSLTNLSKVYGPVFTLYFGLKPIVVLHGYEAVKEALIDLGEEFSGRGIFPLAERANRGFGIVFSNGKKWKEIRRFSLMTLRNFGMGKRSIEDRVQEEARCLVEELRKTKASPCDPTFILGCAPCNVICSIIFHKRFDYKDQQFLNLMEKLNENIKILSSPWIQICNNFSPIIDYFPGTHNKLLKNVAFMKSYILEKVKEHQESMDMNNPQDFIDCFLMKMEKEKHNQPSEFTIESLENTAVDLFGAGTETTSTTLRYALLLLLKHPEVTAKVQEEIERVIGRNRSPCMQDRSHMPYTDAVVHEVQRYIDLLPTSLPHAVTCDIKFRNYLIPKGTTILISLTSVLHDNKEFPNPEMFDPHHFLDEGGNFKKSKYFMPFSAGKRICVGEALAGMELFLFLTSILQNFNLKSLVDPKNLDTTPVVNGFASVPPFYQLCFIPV
T2 sequence (P33261 whole entry): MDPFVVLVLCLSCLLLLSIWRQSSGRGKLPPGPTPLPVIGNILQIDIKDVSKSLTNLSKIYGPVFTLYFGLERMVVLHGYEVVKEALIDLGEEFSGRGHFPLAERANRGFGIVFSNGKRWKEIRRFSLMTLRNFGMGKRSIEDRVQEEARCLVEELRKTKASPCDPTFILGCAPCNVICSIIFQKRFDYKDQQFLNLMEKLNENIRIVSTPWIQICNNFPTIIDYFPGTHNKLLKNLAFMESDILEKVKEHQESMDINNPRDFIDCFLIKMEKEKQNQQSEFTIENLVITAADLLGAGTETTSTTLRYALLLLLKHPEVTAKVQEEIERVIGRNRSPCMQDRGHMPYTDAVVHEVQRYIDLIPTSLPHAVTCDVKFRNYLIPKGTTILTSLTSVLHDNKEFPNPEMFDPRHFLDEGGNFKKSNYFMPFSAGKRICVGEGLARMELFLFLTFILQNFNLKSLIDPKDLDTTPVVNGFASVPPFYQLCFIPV
T1 sequence (P08684 whole entry): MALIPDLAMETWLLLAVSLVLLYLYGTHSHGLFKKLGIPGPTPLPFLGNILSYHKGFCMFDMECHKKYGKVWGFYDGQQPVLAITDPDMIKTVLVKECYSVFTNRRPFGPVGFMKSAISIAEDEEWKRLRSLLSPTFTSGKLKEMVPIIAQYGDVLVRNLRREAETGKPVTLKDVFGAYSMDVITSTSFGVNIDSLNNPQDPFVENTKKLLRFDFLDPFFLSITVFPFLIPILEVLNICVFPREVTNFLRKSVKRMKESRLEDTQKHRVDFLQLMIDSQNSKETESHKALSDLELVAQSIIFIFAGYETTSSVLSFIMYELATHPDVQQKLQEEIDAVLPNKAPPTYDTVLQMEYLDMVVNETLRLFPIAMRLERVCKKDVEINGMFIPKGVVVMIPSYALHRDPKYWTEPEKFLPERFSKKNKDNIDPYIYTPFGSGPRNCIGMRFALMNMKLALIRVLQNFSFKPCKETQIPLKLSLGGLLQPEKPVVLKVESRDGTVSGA

Structure (SMILES) | IC50 [1] [nM] | IC50 [2, 8] [µM] | IC50 [2, 9] [µM] | IC50 [3] [µM] | IC50 [4] [µM] | IC50 [5] [µM] | IC50 [6] [nM] | AUC(0-inf) ([7]; po, 30 mg/kg, PO-30mpk) [µg·h/mL] | Cmax ([7]; po, 30 mg/kg, PO-30mpk) [ng/mL] | half-life ([7]; po, 30 mg/kg, PO-30mpk) [min] | Tmax ([7]; po, 30 mg/kg, PO-30mpk) [h] | C0 ([7]; 0.5 mg/kg, IV-0.5mpk) [ng/mL] | clearance ([7]; 0.5 mg/kg, IV-0.5mpk) [mL/min/kg] | bioavailability ([7]; 30 mg/kg, PO-30mpk vs IV-0.5mpk) [%] | AUC(0-inf) ([7]; iv, 0.5 mg/kg, IV-0.5mpk) [µg·h/mL] | half-life ([7]; iv, 0.5 mg/kg, IV-0.5mpk) [min]
CC(C)(c1ccc(-c2ccc(OC3CCN(c4ccnc(N=S5(=O)CCCC5)n4)CC3)cc2)cc1)c1cc(Cl)c(OCCCl)c(C#N)c1 [Compound 65] | 1180 | > 10 | > 10 | > 10 | > 10 | 4.3 | – | – | – | – | – | – | – | – | – | –
CC(C)(c1ccc(-c2ccc(OCc3ccnc(N4CCC(S(C)(=O)=O)CC4)n3)cc2)cc1)c1cc(Cl)c(OCCCl)c(C#N)c1 [Compound 94] | 490 | > 10 | > 10 | > 10 | > 10 | > 10 | 790 | – | – | – | – | – | – | – | – | –
CC(C)(c1ccc(-c2ccc(OCc3ccnc(N4CC5(CCS5(=O)=O)C4)n3)cc2)cc1)c1cc(Cl)c(OCCCl)c(C#N)c1 [Compound 176] | 390 | > 10 | > 10 | > 10 | > 10 | > 10 | – | 407 | 21300 | 1180 | 4 | – | – | – | – | –
CC(C)(c1ccc(-c2ccc(OCc3ccnc(N4CC5(CCS(=O)(=O)CC5)C4)n3)cc2)cc1)c1cc(Cl)c(OCCCl)c(C#N)c1 [Compound 177] | 210 | > 10 | > 10 | > 10 | > 10 | > 10 | – | 558 | 17800 | 2020 | 6 | – | – | – | – | –
CC(C)(c1ccc(-c2ccc(OCc3ccnc(N4CC(S(C)(=O)=O)C4)n3)nc2)cc1)c1cc(Cl)c(OCCCl)c(C#N)c1 [Compound 207] | 340 | > 10 | > 10 | > 10 | > 10 | > 10 | – | 446 | 33900 | 588 | 3 | 1620 | 1.1 | 97.7 | 7.61 | 966
CC(C)(c1ccc(-c2ccc(OCc3ccnc(N4CC5(CCS(=N)(=O)CC5)C4)n3)cc2)cc1)c1cc(Cl)c(OCCCl)c(C#N)c1 [Compound 289] | 830 | > 10 | > 10 | > 10 | > 10 | > 10 | – | 240 | 10000 | 642 | 4 | – | – | – | – | –
CC(C)(c1ccc(-c2ccc(OCC3CC(CN4CC(S(C)(=O)=O)C4)C3)cc2)cc1)c1cc(Cl)c(OCCCl)c(C#N)c1 (stereo not shown) [Compound 302] | 1410 | > 10 | > 10 | > 10 | > 10 | > 10 | – | – | – | – | – | – | – | – | – | –
CC(C)(c1ccc(-c2cnc(OCc3ccnc(N4CC(S(N)(=O)=O)C4)n3)cn2)cc1)c1cc(Cl)c(OCCCl)c(C#N)c1 [Compound 378] | 170 | > 10 | > 10 | > 10 | – | > 10 | 61 | – | – | – | – | – | – | – | – | –
CC(C)(c1ccc(-c2ncc(OCc3cnc(-c4cnc(P(C)(C)=O)nc4)cn3)cn2)cc1)c1cc(Cl)c(OCCCl)c(C#N)c1 [Compound 403] | – | > 10 | > 10 | > 10 | > 10 | 1.3 | 260 | – | – | – | – | – | – | – | – | –
